Experimental data reported in patent US8071768B2, “Alkylquinoline and alkylquinazoline kinase modulators” (Janssen Pharmaceutica, N.V., priority 2005, dated 2011).

target: T1, TrkB (Homo sapiens, UniProt Q16620); assay: Trk B Fluorescence Polarization Kinase Assay; format: biochemical; conditions: uncertainty ±10%
T1 construct: purchased Upstate 14-507M
Experimental: Trk B Fluorescence Polarization Kinase Assay (TrkB IC50 Data)
The compounds of the present invention are also specific inhibitors of TrkB. Selection of preferred compounds of Formula I for use as TrkB inhibitors was performed in the following manner. The TrkB assay utilized the fluorescein-labeled phosphopeptide and the anti-phosphotyrosine antibody included in the Panvera Phospho-Tyrosine Kinase Kit (Green) supplied by Invitrogen. When TrkB phosphorylated poly Glu4Tyr, the fluorescein-labeled phosphopeptide was displaced from the anti-phosphotyrosine antibody by the phosphorylated poly Glu4Tyr, thus decreasing the FP value. The TrkB kinase reaction was incubated at room temperature for 30 minutes under the following conditions: 50 nM TrkB (Upstate, catalog # 14-507M), 20 ug/mL poly Glu4Tyr, 150 uM ATP, 5 mM MgCl2, 1% compound in DMSO. The kinase reaction was stopped with the addition of EDTA. The fluorescein-labeled phosphopeptide and the anti-phosphotyrosine antibody were added and incubated for 30 minutes at room temperature. Data points were an average of triplicate samples. Inhibition and IC50 data analysis were done with GraphPad Prism using a non-linear regression fit with a multiparamater, sigmoidal dose-response (variable slope) equation.

T1 sequence (Q16620 32-822): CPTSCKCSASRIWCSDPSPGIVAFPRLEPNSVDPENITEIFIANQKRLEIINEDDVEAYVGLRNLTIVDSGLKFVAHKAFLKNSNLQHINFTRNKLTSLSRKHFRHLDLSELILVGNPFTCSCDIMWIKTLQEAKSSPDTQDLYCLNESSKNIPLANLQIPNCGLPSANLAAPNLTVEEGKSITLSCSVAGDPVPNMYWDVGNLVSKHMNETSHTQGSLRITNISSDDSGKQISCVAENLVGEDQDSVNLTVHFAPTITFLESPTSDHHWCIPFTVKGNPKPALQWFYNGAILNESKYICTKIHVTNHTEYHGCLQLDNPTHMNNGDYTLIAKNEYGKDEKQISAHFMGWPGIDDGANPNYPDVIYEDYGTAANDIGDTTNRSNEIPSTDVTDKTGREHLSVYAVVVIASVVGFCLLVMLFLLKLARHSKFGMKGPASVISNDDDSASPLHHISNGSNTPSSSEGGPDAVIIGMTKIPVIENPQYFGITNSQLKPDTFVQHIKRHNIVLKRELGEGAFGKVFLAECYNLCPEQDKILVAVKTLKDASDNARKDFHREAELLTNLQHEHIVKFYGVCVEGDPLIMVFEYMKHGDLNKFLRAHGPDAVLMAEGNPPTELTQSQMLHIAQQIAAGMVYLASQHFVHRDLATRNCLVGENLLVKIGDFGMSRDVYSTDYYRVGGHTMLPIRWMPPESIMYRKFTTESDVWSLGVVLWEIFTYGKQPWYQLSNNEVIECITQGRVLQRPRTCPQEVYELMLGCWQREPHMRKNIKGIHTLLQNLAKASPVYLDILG

For `CCOc1ccc(NC(=O)N2CCC(c3ncnc4cc(OC)c(OC)cc34)CC2)cc1` [Compound 44, 4-(6,7-Dimethoxy-quinazolin-4-yl)-piperidine-1-carboxylic acid (4-ethoxy-phenyl)-amide], which IC50 is on record?
Its IC50 is 2.2 µM.

With `COc1cc2ncnc(C3CCN(C(=O)Nc4ccccc4)CC3)c2cc1OC` [Compound 45, 4-(6,7-Dimethoxy-quinazolin-4-yl)-piperidine-1-carboxylic acid phenylamide] as the compound, how does the IC50 read?
Its IC50 is 6.5 µM.

With `COc1cc2ncnc(C3CCN(C(=O)Nc4ccc(C(F)(F)F)cc4)CC3)c2cc1OC` [Compound 46, 4-(6,7-Dimethoxy-quinazolin-4-yl)-piperidine-1-carboxylic acid (4-trifluoromethyl-phenyl)-amide] as the compound, how does the IC50 read?
The IC50 was 18.3 µM.

`COc1cc2ncnc(C3CCN(C(=O)Nc4ccc(Oc5ccccc5)cc4)CC3)c2cc1OC` [Compound 47, 4-(6,7-Dimethoxy-quinazolin-4-yl)-piperidine-1-carboxylic acid (4-phenoxy-phenyl)-amide] was tested. Which IC50 did it give?
Its IC50 is 4 µM.

Which IC50 does the source give for `COc1cc2ncnc(C3CCN(C(=O)Nc4ccc(C)cc4)CC3)c2cc1OC` [Compound 48, 4-(6,7-Dimethoxy-quinazolin-4-yl)-piperidine-1-carboxylic acid p-tolylamide] here?
Its IC50 is 6.6 µM.

For `COc1cc2ncnc(C3CCN(C(=O)Nc4ccc(Cl)cc4)CC3)c2cc1OC` [Compound 49, 4-(6,7-Dimethoxy-quinazolin-4-yl)-piperidine-1-carboxylic acid (4-chloro-phenyl)-amide], which IC50 is on record?
Its IC50 is 22.3 µM.

With `COc1cc2ncnc(C3CCN(C(=O)Nc4ccc(OC(F)(F)F)cc4)CC3)c2cc1OC` [Compound 50, 4-(6,7-Dimethoxy-quinazolin-4-yl)-piperidine-1-carboxylic acid (4-trifluoromethoxy-phenyl)-amide] as the compound, how does the IC50 read?
Its IC50 is 0.5 µM.

How did the IC50 turn out when `COc1cc2ncnc(C3CCN(C(=O)Nc4ccc(OC(F)F)cc4)CC3)c2cc1OC` [Compound 51, 4-(6,7-Dimethoxy-quinazolin-4-yl)-piperidine-1-carboxylic acid (4-difluoromethoxy-phenyl)-amide] was run?
Its IC50 is 4 µM.

How did the IC50 turn out when `CCC(C)c1ccc(NC(=O)N2CCC(c3ncnc4cc(OC)c(OC)cc34)CC2)cc1` (stereo not drawn) [Compound 52, 4-(6,7-Dimethoxy-quinazolin-4-yl)-piperidine-1-carboxylic acid (4-sec-butyl-phenyl)-amide] was run?
The IC50 was 1.2 µM.

Which IC50 does the source give for `COc1cc2ncnc(C3CCN(C(=O)Nc4ccc(C(C)(C)C)cc4)CC3)c2cc1OC` [Compound 53, 4-(6,7-Dimethoxy-quinazolin-4-yl)-piperidine-1-carboxylic acid (4-tert-butyl-phenyl)-amide] here?
The IC50 was 1.1 µM.

With `COc1cc2ncnc(C3CCN(C(=O)NC4CCC(C(C)(C)C)CC4)CC3)c2cc1OC` (stereo not drawn) [Compound 54, 4-(6,7-Dimethoxy-quinazolin-4-yl)-piperidine-1-carboxylic acid (4-tert-butyl-cyclohexyl)-amide] as the compound, how does the IC50 read?
Its IC50 is 6.2 µM.

With `COc1cc2ncnc(C3CCN(C(=O)Nc4ccc(OC(C)C)nc4)CC3)c2cc1OC` [Compound 56, 4-(6,7-Dimethoxy-quinazolin-4-yl)-piperidine-1-carboxylic acid (6-isopropoxy-pyridin-3-yl)-amide] as the compound, how does the IC50 read?
The IC50 was 0.4 µM.

`COc1cc2ncnc(C3CCN(C(=O)Nc4ccc(N5CCCC5=O)cc4)CC3)c2cc1OC` [Compound 57, 4-(6,7-Dimethoxy-quinazolin-4-yl)-piperidine-1-carboxylic acid [4-(2-oxo-pyrrolidin-1-yl)-phenyl]-amide] was tested. Which IC50 did it give?
The IC50 was 24.9 µM.

How did the IC50 turn out when `COc1cc2ncnc(C3CCN(C(=O)Nc4ccc(-c5cncnc5)cc4)CC3)c2cc1OC` [Compound 58, 4-(6,7-Dimethoxy-quinazolin-4-yl)-piperidine-1-carboxylic acid (4-pyrimidin-5-yl-phenyl)-amide] was run?
Its IC50 is > 42 µM.

Which IC50 does the source give for `COc1cc2ncnc(C3CCN(C(=O)Nc4ccc(-c5ccco5)cc4)CC3)c2cc1OC` [Compound 59, 4-(6,7-Dimethoxy-quinazolin-4-yl)-piperidine-1-carboxylic acid (4-furan-2-yl-phenyl)-amide] here?
Its IC50 is 13.9 µM.

How did the IC50 turn out when `COc1cc2ncnc(C3CCN(C(=O)Nc4ccc(-c5ccc(Cl)nc5)cc4)CC3)c2cc1OC` [Compound 60, 4-(6,7-Dimethoxy-quinazolin-4-yl)-piperidine-1-carboxylic acid [4-(6-chloro-pyridin-3-yl)-phenyl]-amide] was run?
The IC50 was 8.1 µM.

How did the IC50 turn out when `COc1cc2ncnc(C3CCN(C(=O)Nc4ccc(C5=CCN(C(=O)OC(C)(C)C)CC5)cc4)CC3)c2cc1OC` [Compound 61, 4-(4-{[4-(6,7-Dimethoxy-quinazolin-4-yl)-piperidine-1-carbonyl]-amino}-phenyl)-3,6-dihydro-2H-pyridine-1-carboxylic acid tert-butyl ester] was run?
The IC50 was 40.6 µM.

How did the IC50 turn out when `COc1cc2ncnc(C3CCN(C(=O)Nc4ccc(C5=CCNCC5)cc4)CC3)c2cc1OC` [Compound 62, 4-(6,7-Dimethoxy-quinazolin-4-yl)-piperidine-1-carboxylic acid [4-(1,2,3,6-tetrahydro-pyridin-4-yl)-phenyl]-amide] was run?
The IC50 was > 10 µM.

Which IC50 does the source give for `COc1cc2ncnc(C3CCN(C(=O)Nc4ccc(C5CCN(C(=O)OC(C)(C)C)CC5)cc4)CC3)c2cc1OC` [Compound 63, 4-(4-{[4-(6,7-Dimethoxy-quinazolin-4-yl)-piperidine-1-carbonyl]-amino}-phenyl)-piperidine-1-carboxylic acid tert-butyl ester] here?
Its IC50 is > 42 µM.

With `COc1cc2ncnc(C3CCN(C(=O)Nc4ccc(C5CCNCC5)cc4)CC3)c2cc1OC` [Compound 64, 4-(6,7-Dimethoxy-quinazolin-4-yl)-piperidine-1-carboxylic acid (4-piperidin-4-yl-phenyl)-amide] as the compound, how does the IC50 read?
The IC50 was 37.8 µM.

For `CC(C)Oc1ccc(NC(=O)N2CCC(c3ncnc4cc(OCCCNS(C)(=O)=O)ccc34)CC2)cc1` [Compound 65, 4-[7-(3-Methanesulfonylamino-propoxy)-quinazolin-4-yl]-piperidine-1-carboxylic acid (4-isopropoxy-phenyl)-amide], which IC50 is on record?
Its IC50 is 0.5 µM.

`CS(=O)(=O)NCCCOc1ccc2c(C3CCN(C(=O)Nc4ccc(N5CCOCC5)cc4)CC3)ncnc2c1` [Compound 66, 4-[7-(3-Methanesulfonylamino-propoxy)-quinazolin-4-yl]-piperidine-1-carboxylic acid (4-morpholin-4-yl-phenyl)-amide] was tested. Which IC50 did it give?
The IC50 was > 42 µM.

Which IC50 does the source give for `CC(C)Oc1ccc(NC(=O)N2CCC(c3ncnc4cc(OCCCN5CCCC5=O)ccc34)CC2)cc1` [Compound 67, 4-{7-[3-(2-Oxo-pyrrolidin-1-yl)-propoxy]-quinazolin-4-yl}-piperidine-1-carboxylic acid (4-isopropoxy-phenyl)-amide] here?
The IC50 was 0.6 µM.

For `COc1cc2ncnc(C3CCN(C(=O)Nc4ccc(OC5CCCC5)nc4)CC3)c2cc1OC` [Compound 69, 4-(6,7-Dimethoxy-quinazolin-4-yl)-piperidine-1-carboxylic acid (6-cyclopentyloxy-pyridin-3-yl)-amide], which IC50 is on record?
The IC50 was 0.15 µM.

With `COc1cc2ncnc(C3CCN(C(=O)Nc4ccc(N5CCCCCC5)cc4)CC3)c2cc1OC` [Compound 70, 4-(6,7-Dimethoxy-quinazolin-4-yl)-piperidine-1-carboxylic acid (4-azepan-1-yl-phenyl)-amide] as the compound, how does the IC50 read?
The IC50 was 2.7 µM.

`COc1cc2ncnc(C3CCN(C(=O)Nc4ccc(N5CCCCC5)c(Cl)c4)CC3)c2cc1OC` [Compound 71, 4-(6,7-Dimethoxy-quinazolin-4-yl)-piperidine-1-carboxylic acid (3-chloro-4-piperidin-1-yl-phenyl)-amide] was tested. Which IC50 did it give?
Its IC50 is 6.1 µM.

With `O=C(Nc1ccc(N2CCOCC2)cc1)N1CCC(c2ncnc3cc(OCCCN4CCCCC4)ccc23)CC1` [Compound 75] as the compound, how does the IC50 read?
Its IC50 is > 20 µM.

How did the IC50 turn out when `O=C(Nc1ccc(N2CCOCC2)cc1)N1CCC(c2ncnc3cc(OCCCO)ccc23)CC1` [Compound 77, 4-[7-(3-Hydroxy-propoxy)-quinazolin-4-yl]-piperidine-1-carboxylic acid (4-morpholin-4-yl-phenyl)-amide] was run?
Its IC50 is > 20 µM.

How did the IC50 turn out when `COCCCOc1ccc2c(C3CCN(C(=O)Nc4ccc(N5CCOCC5)cc4)CC3)ncnc2c1` [Compound 78, 4-[7-(3-Methoxy-propoxy)-quinazolin-4-yl]-piperidine-1-carboxylic acid (4-morpholin-4-yl-phenyl)-amide] was run?
Its IC50 is 18.4 µM.

Which IC50 does the source give for `CC(C)Oc1ccc(NC(=O)N2CCC(c3ncnc4cc(OCCN5CCOC5=O)ccc34)CC2)cc1` [Compound 79, 4-{7-[2-(2-Oxo-oxazolidin-3-yl)-ethoxy]-quinazolin-4-yl}-piperidine-1-carboxylic acid (4-isopropoxy-phenyl)-amide] here?
The IC50 was 0.3 µM.

`CN1CCN(CCCOc2ccc3c(C4CCN(C(=O)Nc5ccc(N6CCOCC6)c(F)c5)CC4)ncnc3c2)CC1` [Compound 81, 4-{7-[3-(4-Methyl-piperazin-1-yl)-propoxy]-quinazolin-4-yl}-piperidine-1-carboxylic acid (3-fluoro-4-morpholin-4-yl-phenyl)-amide] was tested. Which IC50 did it give?
The IC50 was > 20 µM.

`CN1CCN(CCCOc2ccc3c(C4CCN(C(=O)Nc5ccc(OC6CCCC6)nc5)CC4)ncnc3c2)CC1` [Compound 82, 4-{7-[3-(4-Methyl-piperazin-1-yl)-propoxy]-quinazolin-4-yl}-piperidine-1-carboxylic acid (6-cyclopentyloxy-pyridin-3-yl)-amide] was tested. Which IC50 did it give?
The IC50 was 0.4 µM.

Which IC50 does the source give for `O=C1CCCN1CCOc1ccc2c(C3CCN(C(=O)Nc4cnc(N5CCCC5)nc4)CC3)ncnc2c1` [Compound 84, 4-{7-[2-(2-Oxo-pyrrolidin-1-yl)-ethoxy]-quinazolin-4-yl}-piperidine-1-carboxylic acid (2-pyrrolidin-1-yl-pyrimidin-5-yl)-amide] here?
The IC50 was 0.8 µM.
